According to US11376307B2, “Compositions and methods of treating cancer with glycomimetic peptides” (SUSAVION BIOSCIENCES, INC., priority 2018, dated 2022):
Positions of bridges follow the written chain, without caps; N, C: chain ends. Chains are numbered I, II in the order given.

Tests used:
[1] = target: T1, human ASGPR-1 (Homo sapiens, UniProt P07306); assay: Inhibition of binding of multivalent GalNAc-PAA; details: about 200 pmoles biotinylated GalNAc-PAA, increasing peptide
T1 construct: The extracellular domains of receptors, which were fused with the Fc domain of immunoglobulin IgG; purchased R&D Systems
T1 sequence (P07306 62-291 limits assumed): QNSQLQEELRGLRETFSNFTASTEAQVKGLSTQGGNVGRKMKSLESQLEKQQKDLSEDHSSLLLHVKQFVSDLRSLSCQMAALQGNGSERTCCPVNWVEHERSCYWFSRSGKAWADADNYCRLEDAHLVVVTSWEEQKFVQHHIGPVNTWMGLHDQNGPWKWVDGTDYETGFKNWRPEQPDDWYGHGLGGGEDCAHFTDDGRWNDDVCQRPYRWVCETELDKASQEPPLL
Protocol: FIGS. 3A-3D. sv6D as a mimetic of GalNAc. (FIG. 3A) Inhibition by sv6D of binding of multivalent GalNAc-PAA (GlycoTech Corp., Frederick, Md.) to recombinant rat CLEC10A and human ASGPR-1. The reaction mixture included approximately 200 pmoles of biotinylated GalNc-PAA and increasing concentrations of peptide. The figure includes average values from 3 independent experiments. (FIG. 3B) Biotinylated sv6D or GalNAc-PAA were incubated with rabbit antiserum raised against the 6D sequence (NQHTPR) (SEQ ID NO:1) conjugated to keyhole limpet hemocyanin (KLH). Binding was detected with streptavidin-peroxidase conjugate. Similar data were obtained in 2 experiments. (FIG. 3C) Inhibition by EGTA of binding of sv6D (pattern) or svL4 (solid) to CLEC10A and ASGPR-1, respectively. EGTA (1 mM) was added to the final concentrations indicated to assays. Retention of bound CLEC10A was determined by incubation with biotinylated anti-CLEC10A (goat IgG, R&D Systems) and detection with streptavidin-peroxidase conjugate (light grey circle). Similar data were obtained in 3 experiments. (FIG. 3D) Binding of svL4 and sv6D to human recombinant CLEC10A and ASGPR-1 as a function of concentration of peptide in the assay. The figure is representative of 4 separate assays.
To further determine whether sv6D interacts with the actual sugar binding site, the ability of sv6D to compete with GalNAc-PAA for binding was assayed.

[2] = test system: human monocyte-derived DCs co-cultured with CD3+ T cells; assay: Allogenic mixed leukocyte reaction, IFN-γ release; type: cell-based
Protocol: FIGS. 5A-5B. Mixed leukocyte reaction. An allogenic mixture of 5×10^3 human monocyte-derived immature dendritic cells and 1×10^5 negatively selected CD3^+ T cells were incubated with various concentrations of sv6D. (FIG. 5A) Effect of concentration of sv6D in the medium on release of IFN-γ after 5 days of culture. […] (FIG. 5B) The time course of the appearance of IFN-γ in the medium of cultures incubated with 10 nM sv6D in (FIG. 5A) as compared with control incubations with PBS.
Binding of a peptide to CLEC10A expressed by DCs is expected to stimulate maturation and potential activation of T cells. This hypothesis was tested by an experiment in which human monocyte-derived DCs were co-cultured with T cells. Expression of CLEC10A (CD301) by the DCs was established by flow cytometry. sv6D was added to the medium at various concentrations, and IFN-γ production by T cells was assayed. […] Significant release of IFN-γ occurred after 3 days of incubation (FIG. 5B), a time required for DC maturation.

[3] = test system: peritoneal immune cells; assay: Expansion of peritoneal cells after subcutaneous injection, flow cytometry; type: in vivo, Balb/c mice; details: 24 h after a single s.c. injection, 1 nmol/g
Protocol: Flow Cytometry Healthy C57BL/6 male mice, 10 weeks old, were injected subcutaneously with peptides on alternate days. Peritoneal cells were isolated from mice 24 h after dosing by injecting ice cold PBS (containing 3% FBS) into the peritoneal cavity, gently massaging the abdomen, and then collecting the fluid, which was transferred into K2EDTA-treated tubes for evaluation of specific biomarkers. Cells from three mice in each group were pooled, counted and divided among FACS tubes (1×10^6 cells per tube). […]
Cells were incubated with the antibodies for 30 min at 4° C. in the dark. Following staining, the cells were washed two times with PBS/3% FBS and immediately analyzed with a MACSQuant flow cytometer (Miltenyi Biotech, Inc., San Diego, Calif.). […]
To examine whether increases occurred in mature immune cells, peritoneal cells from Balb/c and C57BL/6 mice were analyzed by flow cytometry after cells were stained with the markers listed in Table 1. […] Shown in FIGS. 7A-7D are results expressed as cell counts for F4/80 CD11b CD86 (mature, active macrophages); CD11c (DCs); CD11c CD86 (activated DCs); CD4 CD69 (activated T cells); CD8 CD69 (activated cytotoxic T cells); NK1.1 CD3^+ CD69 (activated NKT cells); NK1.1 CD3^− CD69 (activated NK cells); CD19 (B cells); and CD19 CD73 CD80 CD273 (memory B cells). […]

[4] = Serum cytokine array (L-308) in healthy mice; type: in vivo, Balb/c mice; details: svL4 s.c., 4 h, separate experiment
Protocol: Ratios of treated vs. untreated samples obtained in a separate experiment with healthy Balb/c mice are shown in the right-hand column of Table 2 for comparison. The most significant increase in the serum of healthy mice treated with the peptide was in the amount of soluble HVEM (Herpes virus entry mediator, also designated TNFRSF14), which was a prominent protein in serum and increased approximately 10-fold within 4 h after treatment. In the tumor-bearing mice, the level of soluble HVEM in treated animals was similar to that in treated healthy mice, but the level in untreated animals was higher than that in healthy control mice.

Substance	Inhibition of binding of GalNAc-PAA to ASGPR-1 [1]	Incubation time after which significant release of IFN-γ occurred ([2]; 10 nM sv6D) [days]	Concentration giving maximal IFN-γ production / optimal cellular response ([2]; 5 days of culture) [nM]	Change in peritoneal macrophages, DCs, T cells and NK cells [3]	Ratio of level of IFN-γ in sera (treated vs. untreated) [4]	Ratio of level of IL-1α in sera (treated vs. untreated) [4]	Ratio of level of IL-2 in sera (treated vs. untreated) [4]	Ratio of level of IL-12p70 in sera (treated vs. untreated) [4]	Ratio of level of IL-17 in sera (treated vs. untreated) [4]	Ratio of level of IL-21 in sera (treated vs. untreated) [4]	Ratio of level of IL-23 in sera (treated vs. untreated) [4]	Ratio of level of IL-27 in sera (treated vs. untreated) [4]	Ratio of level of IL-28 in sera (treated vs. untreated) [4]	Ratio of level of IL-31 in sera (treated vs. untreated) [4]	Ratio of level of Lymphotoxin-α in sera (treated vs. untreated) [4]	Ratio of level of TNFα in sera (treated vs. untreated) [4]
I: H-NQHTPRGGGSKK-NH2 / II: H-NQHTPRGGGSK / III: H-NQHTPRGGGS / IV: H-NQHTPRGGGS (amide I:11-IV:C, I:12-II:C, II:11-III:C) [sv6D]	inhibited	3	10													
I: H-VQATQSNQHTPRGGGSKK-NH2 / II: H-VQATQSNQHTPRGGGSK / III: H-VQATQSNQHTPRGGGS / IV: H-VQATQSNQHTPRGGGS (amide I:17-IV:C, I:18-II:C, II:17-III:C) [svL4]				Several-fold increases	no change	0.86	no change	no change	no change	no change	no change	0.55	no change	no change	0.74	0.21
